Data on one compound can be found in patent publication US10085955B2, “Methods and compositions for treatment of demyelinating diseases” (Pathologica LLC, priority 2013, dated 2018).

This assay deals with MOG-induced experimental autoimmune encephalomyelitis (EAE). The experiment in a line: Third MOG EAE protocol (MGBG, fingolimod and combination). The assay is classed as in vivo, C57BL/6 mice. The note with it: MGBG 30 mpk twice-daily, fingolimod 0.1 mpk once-daily, or both. An excerpt: An experimental murine model of multiple sclerosis employing a myelin oligodendrocyte glycoprotein (MOG) peptide to induce experimental autoimmune encephalomyelitis (EAE) was employed to determine the efficacy of MGBG in preventing and treating that disease. Because of its many similarities to MS, EAE is commonly used to study pathogenesis of autoimmunity, CNS inflammation, demyelination, cell trafficking, and tolerance induction. EAE is characterized by paralysis (in some models the paralysis is remitting-relapsing), CNS inflammation and demyelination. EAE is mediated primarily by dendritic cells, myelin-specific T cells (e.g. Th1 and Th17), and M1 macrophages. B cells may also play a role in some models of EAE. Body weight also tracks disease progression. EAE is induced in C57BL/6 mice by immunization with MOG35-55 or MOG1-125 in CFA emulsion followed by administration of pertussis toxin (PTX) in PBS. The emulsion provides antigen which initiates expansion and differentiation of MOG-specific autoimmune T cells. PTX enhances EAE development by providing additional adjuvant and facilitating entrance of autoimmune T cells into the CNS.
Chronic EAE develops in C57BL/6 mice after immunization with an emulsion of MOG35-55/CFA or MOG1-125/CFA followed by injection of pertussis toxin. This model is used to test the potential of compounds to prevent or mitigate EAE disease. It can be run with the compound dosed from the time of immunization (prophylactic treatment), or with the aim of reversing the course of disease and facilitating recovery by dosing the compound from the time of EAE onset (therapeutic treatment). The model uses female C57BL/6 mice of age 10 to 14 weeks at the start of the study. Typically, EAE develops 8-18 days after immunization. EAE development is usually followed for 4 weeks (28 days) after immunization.
Clinically, EAE progression is scored on a scale of 0 to 5, wherein each score represents the following clinical observations:
Inflammatory foci of approximately 20 cells were counted in each H&E stained section. When inflammatory infiltrates consisted of more than 20 cells, an estimate was made of how many foci of 20 cells were present.
The demyelination score represents an estimate of demyelinated area for each section as follows:
Ten week old female C57BL/6 mice weighing 18-23 g (Taconic Farms) were divided into four groups: mock immunized (n=3) and three MOG-immunized groups receiving MGBG at 30 mpk BID (as the di-HCl monohydrate with a correction factor of 1.49), […] dose, or 0.9% saline vehicle BID (n=12 each). […]

SMILES strings stand for the structures. Entries after “also recorded” stand apart in the source; their conditions may differ.

On to `CC(/C=N/NC(=N)N)=N\NC(=N)N` [MGBG, 1,1′ [methylethanediylidene]dinitrilodiguanidine], for which, under “third 28-day study”, the “clinical scores / development of EAE” value is “suppressed EAE comparably to 0.1 mpk fingolimod; also recorded: equivalently efficacious in preventing EAE development”. For the same compound, where the note is “third study”, the “cellular apoptosis in spinal cord” value was “equivalently efficacious in reducing apoptosis”, the “number of inflammatory foci in spinal cord” value was “equivalently efficacious in reducing the number of inflammatory foci” and the spinal cord demyelination result is “equivalently efficacious in reducing demyelination”.
